{"source": "patent US9855270B2", "about": "“Methods and compositions for modulating estrogen receptor mutants” (priority 2014, dated 2018)", "experiment_in_all_cases": "cells", "format_in_all_cases": "cell-based", "key": {"[1]": {"tested_on": "MCF-7 cells stably expressing EF1 HA-ER-α E380Q", "settings": "EF1 HA-ER-α E380Q; for Percent inhibition compared to vehicle: 5-Day Incubation; for Efficacy (Emax): Day 5 relative to Day 0; for EC50: Homo sapiens, MCF7, read-out: Potency (EC50; nM)", "procedure,_shortened": "(§1)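 CellTiter-Glo read-out: background-subtracted RLU divided by day-0 RLU gives fold proliferation. Cells were MCF-7 transduced with HA-ER-α lentivirus (EF1 high or UbC low-moderate promoter) or empty vector, dosed 10 μM–5 pM for 5 days in phenol-free RPMI/10% CSS.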"}, "[2]": {"tested_on": "MCF-7 cells stably expressing EF1 HA-ER-α L536P", "settings": "EF1 HA-ER-α L536P; for Percent inhibition compared to vehicle: 5-Day Incubation; for Efficacy (Emax): Day 5 relative to Day 0; for EC50: Homo sapiens, MCF7, read-out: Potency (EC50; nM)", "procedure,_shortened": "(§2)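 MCF-7 lines stably expressing N-terminal HA-tagged ESR1 (wild-type or mutant) from EF1 (puromycin-selected) or UbC (hygromycin-selected) lentiviral vectors, or empty vector, were seeded in phenol-free RPMI with 10% CSS.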"}, "[3]": {"tested_on": "MCF-7 cells stably expressing UbC HA-ER-α Y537N", "settings": "UbC HA-ER-α Y537N; for EC50: Homo sapiens, MCF7, read-out: Potency (EC50; nM); for Percent inhibition compared to vehicle: 5-Day Incubation; for Efficacy (Emax): Day 5 relative to Day 0", "procedure,_shortened": "as §1"}, "[4]": {"tested_on": "MCF-7 cells stably expressing UbC HA-ER-α L536R", "settings": "UbC HA-ER-α L536R; for EC50: Homo sapiens, MCF7, read-out: Potency (EC50; nM); for Percent inhibition compared to vehicle: 5-Day Incubation; for Efficacy (Emax): Day 5 relative to Day 0", "procedure,_shortened": "as §1"}, "[5]": {"tested_on": "MCF-7 cells stably expressing UbC HA-ER-α L536P", "settings": "for EC50: Homo sapiens, MCF7, read-out: Potency (EC50; nM)", "procedure,_shortened": "as §1"}, "[6]": {"tested_on": "MCF-7 cells stably expressing UbC HA-ER-α E380Q", "settings": "UbC HA-ER-α E380Q; for EC50: Homo sapiens, MCF7, read-out: Potency (EC50; nM); for Percent inhibition compared to vehicle: 5-Day Incubation; for Efficacy (Emax): Day 5 relative to Day 0", "procedure,_shortened": "as §2"}, "[7]": {"tested_on": "MCF-7 cells stably expressing EF1 HA-ER-α L536R", "settings": "EF1 HA-ER-α L536R; for Percent inhibition compared to vehicle: 5-Day Incubation; for Efficacy (Emax): Day 5 relative to Day 0; for EC50: Homo sapiens, MCF7, read-out: Potency (EC50; nM)", "procedure,_shortened": "as §2"}, "[8]": {"tested_on": "MCF-7 cells stably expressing EF1 HA-ER-α Y537N", "settings": "EF1 HA-ER-α Y537N; for Efficacy (Emax): Day 5 relative to Day 0; for EC50: Homo sapiens, MCF7, read-out: Potency (EC50; nM)", "procedure,_shortened": "as §2"}, "[9]": {"settings": "Antagonist Mode, −E2 (Table 27)"}, "[10]": {"settings": "Antagonist Mode, +E2, 5-Day Incubation"}}, "note": "Read-outs that look alike come from different tables or passages of the source.", "data": [{"smiles": "C[C@]12CC[C@@H]3c4ccc(O)cc4C[C@@H](CCCCCCCCC[S+]([O-])CCCC(F)(F)C(F)(F)F)[C@H]3[C@@H]1CC[C@@H]2O", "note": "(stereo partly drawn) [Fulvestrant]", "values": [{"measurement": "Percent inhibition compared to vehicle", "setting": "[1]; Agonist Mode, −E2", "value": 62, "unit": "%"}, {"measurement": "Efficacy (Emax)", "setting": "[1]; Agonist Mode, −E2", "value": "2.50 ± 0.03"}, {"measurement": "Percent inhibition compared to vehicle", "setting": "[1]; Antagonist Mode, +E2", "value": 65, "unit": "%"}, {"measurement": "Efficacy (Emax)", "setting": "[1]; Antagonist Mode, +E2", "value": "2.21 ± 0.12"}, {"measurement": "EC50", "setting": "[1]; Agonist Mode, −E2", "value": "4.36 ± 3.23", "unit": "nM"}, {"measurement": "EC50", "setting": "[1]; Antagonist Mode, +E2", "value": "10.3 ± 2.62", "unit": "nM"}, {"measurement": "EC50", "setting": "[1]; [9]", "value": "4.36 ± 3.23", "unit": "nM"}, {"measurement": "Percent inhibition compared to vehicle", "setting": "[2]; Agonist Mode, −E2", "value": 56, "unit": "%"}, {"measurement": "Efficacy (Emax)", "setting": "[2]; Agonist Mode, −E2", "value": "3.58 ± 0.10"}, {"measurement": "Percent inhibition compared to vehicle", "setting": "[2]; Antagonist Mode, +E2", "value": 60, "unit": "%"}, {"measurement": "Efficacy (Emax)", "setting": "[2]; Antagonist Mode, +E2", "value": "3.65 ± 0.56"}, {"measurement": "EC50", "setting": "[2]; Agonist Mode, −E2", "value": "4.51 ± 0.313", "unit": "nM"}, {"measurement": "EC50", "setting": "[2]; Antagonist Mode, +E2", "value": "16.4 ± 8.21", "unit": "nM"}, {"measurement": "EC50", "setting": "[2]; [9]", "value": "4.51 ± 0.313", "unit": "nM"}, {"measurement": "EC50", "setting": "[3]; Agonist Mode, −E2", "value": "0.355 ± 0.163", "unit": "nM"}, {"measurement": "EC50", "setting": "[3]; Antagonist Mode, +E2", "value": "1.77 ± 0.387", "unit": "nM"}, {"measurement": "Percent inhibition compared to vehicle", "setting": "[3]; Agonist Mode, −E2", "value": 63, "unit": "%"}, {"measurement": "Efficacy (Emax)", "setting": "[3]; Agonist Mode, −E2", "value": "1.61 ± 0.15"}, {"measurement": "Percent inhibition compared to vehicle", "setting": "[3]; Antagonist Mode, +E2", "value": 77, "unit": "%"}, {"measurement": "Efficacy (Emax)", "setting": "[3]; Antagonist Mode, +E2", "value": "1.49 ± 0.00"}, {"measurement": "EC50", "setting": "[4]; Agonist Mode, −E2", "value": "0.257 ± 0.09", "unit": "nM"}, {"measurement": "EC50", "setting": "[4]; Antagonist Mode, +E2", "value": "2.3 ± 1.81", "unit": "nM"}, {"measurement": "Percent inhibition compared to vehicle", "setting": "[4]; Agonist Mode, −E2", "value": 55, "unit": "%"}, {"measurement": "Efficacy (Emax)", "setting": "[4]; Agonist Mode, −E2", "value": "1.71 ± 0.22"}, {"measurement": "Percent inhibition compared to vehicle", "setting": "[4]; Antagonist Mode, +E2", "value": 71, "unit": "%"}, {"measurement": "Efficacy (Emax)", "setting": "[4]; Antagonist Mode, +E2", "value": "1.71 ± 0.16"}, {"measurement": "Percent inhibition compared to vehicle", "setting": "[5]; Agonist Mode, −E2, 5-Day Incubation", "value": 47, "unit": "%"}, {"measurement": "Efficacy (Emax)", "setting": "[5]; Agonist Mode, −E2, Day 5 relative to Day 0", "value": "1.66 ± 0.11"}, {"measurement": "Percent inhibition compared to vehicle", "setting": "[5]; [10]", "value": 71, "unit": "%"}, {"measurement": "Efficacy (Emax)", "setting": "[5]; Antagonist Mode, +E2, Day 5 relative to Day 0", "value": "1.73 ± 0.08"}, {"measurement": "EC50", "setting": "[5]; Agonist Mode, −E2", "value": "0.298 ± 0.132", "unit": "nM"}, {"measurement": "EC50", "setting": "[5]; Antagonist Mode, +E2", "value": "2.59 ± 2.58", "unit": "nM"}, {"measurement": "EC50", "setting": "[6]; Agonist Mode, −E2", "value": "0.248 ± 0.094", "unit": "nM"}, {"measurement": "EC50", "setting": "[6]; Antagonist Mode, +E2", "value": "1.14 ± 0.028", "unit": "nM"}, {"measurement": "Percent inhibition compared to vehicle", "setting": "[6]; Agonist Mode, −E2", "value": 60, "unit": "%"}, {"measurement": "Efficacy (Emax)", "setting": "[6]; Agonist Mode, −E2", "value": "1.70 ± 0.30"}, {"measurement": "Percent inhibition compared to vehicle", "setting": "[6]; Antagonist Mode, +E2", "value": 76, "unit": "%"}, {"measurement": "Efficacy (Emax)", "setting": "[6]; Antagonist Mode, +E2", "value": "1.70 ± 0.32"}, {"measurement": "Percent inhibition compared to vehicle", "setting": "[7]; Agonist Mode, −E2", "value": 42, "unit": "%"}, {"measurement": "Efficacy (Emax)", "setting": "[7]; Agonist Mode, −E2", "value": "3.95 ± 0.36"}, {"measurement": "Percent inhibition compared to vehicle", "setting": "[7]; Antagonist Mode, +E2", "value": 48, "unit": "%"}, {"measurement": "Efficacy (Emax)", "setting": "[7]; Antagonist Mode, +E2", "value": "3.53 ± 0.28"}, {"measurement": "EC50", "setting": "[7]; Agonist Mode, −E2", "value": "6.29 ± 1.13", "unit": "nM"}, {"measurement": "EC50", "setting": "[7]; Antagonist Mode, +E2", "value": "35 ± 2.77", "unit": "nM"}, {"measurement": "EC50", "setting": "[7]; [9]", "value": "6.29 ± 1.13", "unit": "nM"}, {"measurement": "Efficacy (Emax)", "setting": "[8]; Agonist Mode, −E2", "value": "0.52 ± 0.09"}, {"measurement": "Percent inhibition compared to vehicle", "setting": "[8]; [10]", "value": 90, "unit": "%"}, {"measurement": "Efficacy (Emax)", "setting": "[8]; Antagonist Mode, +E2", "value": "0.56 ± 0.02"}, {"measurement": "EC50", "setting": "[8]; Agonist Mode, −E2", "value": "9.26 ± 2.39", "unit": "nM"}, {"measurement": "EC50", "setting": "[8]; Antagonist Mode, +E2", "value": "12.4 ± 3.52", "unit": "nM"}, {"measurement": "EC50", "setting": "[8]; [9]", "value": "9.26 ± 2.39", "unit": "nM"}]}]}
